Assay results taken from patent publication US9133207B2, “Tetrandrine derivatives with substituted 5-carbon, preparation method and use thereof” (Hangzhou Bensheng Pharmaceutical Co., Ltd., priority 2011, dated 2015).
In brackets after ≈: the same amount, converted by molar mass.

Key:
[1] = system: Jurkat (acute lymphoblastic leukemia, ALL); assay: Leukemia cell growth inhibition, MTT, 72 h (Example 5); assay type: cell-based, human; conditions: Homo sapiens, Jurkat; 72 h, MTT
Method in brief: (§1)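 RPMI 1640 + 10% FBS, 6000 cells/well; tetrandrine derivatives at various concentrations; 37° C, 5% CO2, 72 h; viability by MTT.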

[2] = system: H9 (acute lymphoblastic leukemia, ALL); assay: as above; assay type: cell-based, human; conditions: Homo sapiens; 72 h, MTT
Method in brief: as §1

[3] = system: Kasumi-1 (acute myeloid leukemia M2 type, AML-M2); assay: as above; assay type: cell-based, human; conditions: Homo sapiens, Kasumi 1
Method in brief: as §1

[4] = system: NB4 (acute promyelocytic leukemia, AML); assay: as above; assay type: cell-based, human; conditions: Homo sapiens; 72 h, MTT
Method in brief: as §1

[5] = system: K562/adr (drug-resistant, chronic myeloid leukemia, CML); assay: as above; assay type: cell-based, human; conditions: Homo sapiens, K562/Adr; 72 h, MTT
Method in brief: as §1

[6] = system: RPMI8226 (multiple myeloma); assay: Multiple myeloma cell growth inhibition, MTT, 72 h (Example 6); assay type: cell-based, human; conditions: Homo sapiens, RPMI-8226; 72 h, MTT, RPMI8226
Method in brief: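 Viability was read by MTT after 72 h of compound exposure at 37 °C, 5% CO2. Each well held 6000 RPMI8226 cells in 1640 medium containing 10% fetal bovine serum, with derivatives added at various concentrations.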

[7] = system: PC-3 (prostate cancer); assay: Solid tumor cell growth inhibition, MTT, 72 h (Example 7); assay type: cell-based, human; conditions: Homo sapiens; 72 h, MTT, PC-3
Method in brief: (§2)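 4000 cells/well; DMEM high glucose + 10% FBS; 37 °C, 5% CO2; 24 h pre-culture; tetrandrine derivatives, varied conc., 72 h; MTT readout; viability % vs untreated control = 100%.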

[8] = system: PANC-1 (pancreatic cancer); assay: as above; assay type: cell-based, human; conditions: Homo sapiens; 72 h, MTT, PANC-1
Method in brief: as §2

[9] = system: Hep-2 (laryngeal carcinoma); assay: as above; assay type: cell-based, human; conditions: Homo sapiens; 72 h, MTT, Hep 2
Method in brief: as §2

[10] = system: MG63 (osteosarcoma); assay: as above; assay type: cell-based, human; conditions: Homo sapiens; 72 h, MTT, MG-63
Method in brief: as §2

[11] = system: CaES-17 (esophageal cancer cell); assay: as above; assay type: cell-based, human; conditions: Homo sapiens, CaEs17; 72 h, MTT, CAES-17
Method in brief: as §2

[12] = system: RKO (human colon adenocarcinoma cell); assay: as above; assay type: cell-based; conditions: Homo sapiens; 72 h, MTT, RKO
Method in brief: as §2

[13] = system: A549 (human lung cancer); assay: as above; assay type: cell-based; conditions: Homo sapiens; 72 h, MTT, A549
Method in brief: as §2

[14] = system: MGC 803 (human gastric cancer cell); assay: as above; assay type: cell-based; conditions: Homo sapiens
Method in brief: as §2

[15] = system: SK-OV-3 (ovarian cancer cell); assay: as above; assay type: cell-based; conditions: Homo sapiens
Method in brief: as §2

[16] = system: U87 MG (malignant glioma cell); assay: as above; assay type: cell-based; conditions: Homo sapiens, U-87 MG
Method in brief: as §2

[17] = system: Huh7 (human liver cancer cell); assay: as above; assay type: cell-based; conditions: Homo sapiens; 72 h, MTT, Huh-7
Method in brief: as §2

[18] = system: Hela (human cervical cancer cell); assay: as above; assay type: cell-based; conditions: Homo sapiens; 72 h, MTT, Hela
Method in brief: as §2

[19] = system: CNE (nasopharyngeal carcinoma cell); assay: as above; assay type: cell-based; conditions: Homo sapiens
Method in brief: as §2

[20] = system: Becap37 (human breast cancer cell); assay: as above; assay type: cell-based; conditions: Homo sapiens; 72 h, MTT, Becap-37
Method in brief: as §2

COc1ccc2cc1Oc1ccc(cc1)C[C@H]1c3cc(c(OC)cc3CCN1C)Oc1c(OC)c(OC)c(CNCc3cccs3)c3c1[C@H](C2)N(C)CC3 [BS-TE-359]
IC50 [1]: 0.65 µg/mL (≈ 0.869 µM)
IC90 [1]: 5 µg/mL (≈ 6.68 µM)
IC50 [2]: 1.25 µg/mL (≈ 1.67 µM)
IC90 [2]: 2.3 µg/mL (≈ 3.08 µM)
IC50 [3]: 0.42 µg/mL (≈ 0.562 µM)
IC90 [3]: 1.83 µg/mL (≈ 2.45 µM)
IC50 [4]: 0.4 µg/mL (≈ 0.535 µM)
IC90 [4]: 1 µg/mL (≈ 1.34 µM)
IC50 [5]: 0.36 µg/mL (≈ 0.481 µM)
IC90 [5]: 2.18 µg/mL (≈ 2.91 µM)
IC50 [6]: 0.05 µg/mL (≈ 0.0668 µM)
IC90 [6]: 1.42 µg/mL (≈ 1.9 µM)
IC50 [7]: 3 µg/mL (≈ 4.01 µM)
IC90 [7]: 4.7 µg/mL (≈ 6.28 µM)
IC50 [8]: 2.44 µg/mL (≈ 3.26 µM)
IC90 [8]: 8.04 µg/mL (≈ 10.7 µM)
IC50 [9]: 4.6 µg/mL (≈ 6.15 µM)
IC90 [9]: 8.29 µg/mL (≈ 11.1 µM)
IC50 [10]: 1.1 µg/mL (≈ 1.47 µM)
IC90 [10]: 1.98 µg/mL (≈ 2.65 µM)
IC50 [11]: 1.61 µg/mL (≈ 2.15 µM)
IC90 [11]: 7.67 µg/mL (≈ 10.3 µM)
IC50 [12]: 0.58 µg/mL (≈ 0.775 µM)
IC90 [12]: 1.01 µg/mL (≈ 1.35 µM)
IC50 [13]: 3.3 µg/mL (≈ 4.41 µM)
IC90 [13]: 12.8 µg/mL (≈ 17.1 µM)
IC50 [14]: 0.88 µg/mL (≈ 1.18 µM)
IC90 [14]: 6 µg/mL (≈ 8.02 µM)
IC50 [15]: 2 µg/mL (≈ 2.67 µM)
IC90 [15]: 14.4 µg/mL (≈ 19.3 µM)
IC50 [16]: 0.33 µg/mL (≈ 0.441 µM)
IC90 [16]: 1.01 µg/mL (≈ 1.35 µM)
IC50 [17]: 1.19 µg/mL (≈ 1.59 µM)
IC90 [17]: 1.68 µg/mL (≈ 2.25 µM)
IC50 [18]: 1.09 µg/mL (≈ 1.46 µM)
IC90 [18]: 2.56 µg/mL (≈ 3.42 µM)
IC50 [19]: 1.57 µg/mL (≈ 2.1 µM)
IC90 [19]: 2.83 µg/mL (≈ 3.78 µM)
IC50 [20]: 1.1 µg/mL (≈ 1.47 µM)
IC90 [20]: 2 µg/mL (≈ 2.67 µM)

COc1ccc2cc1Oc1ccc(cc1)C[C@H]1c3cc(c(OC)cc3CCN1C)Oc1c(OC)c(OC)c(CN3CCCC(O)C3)c3c1[C@H](C2)N(C)CC3 (some centres unmarked) [BS-TE-321]
IC50 [1]: 0.94 µg/mL (≈ 1.28 µM)
IC90 [1]: 5.75 µg/mL (≈ 7.81 µM)
IC50 [2]: 0.91 µg/mL (≈ 1.24 µM)
IC90 [2]: 1.78 µg/mL (≈ 2.42 µM)
IC50 [3]: 0.48 µg/mL (≈ 0.652 µM)
IC90 [3]: 2.55 µg/mL (≈ 3.47 µM)
IC50 [4]: 0.8 µg/mL (≈ 1.09 µM)
IC90 [4]: 1.9 µg/mL (≈ 2.58 µM)
IC50 [5]: 0.49 µg/mL (≈ 0.666 µM)
IC90 [5]: 3.02 µg/mL (≈ 4.1 µM)
IC50 [6]: 0.08 µg/mL (≈ 0.109 µM)
IC90 [6]: 3.63 µg/mL (≈ 4.93 µM)
IC50 [7]: 2.01 µg/mL (≈ 2.73 µM)
IC90 [7]: 3.84 µg/mL (≈ 5.22 µM)
IC50 [8]: 2.6 µg/mL (≈ 3.53 µM)
IC90 [8]: 9.14 µg/mL (≈ 12.4 µM)
IC50 [9]: 3.51 µg/mL (≈ 4.77 µM)
IC90 [9]: 9.8 µg/mL (≈ 13.3 µM)
IC50 [10]: 1.1 µg/mL (≈ 1.49 µM)
IC90 [10]: 3.2 µg/mL (≈ 4.35 µM)
IC50 [11]: 2.25 µg/mL (≈ 3.06 µM)
IC90 [11]: 19.1 µg/mL (≈ 25.9 µM)
IC50 [12]: 0.69 µg/mL (≈ 0.938 µM)
IC90 [12]: 1.71 µg/mL (≈ 2.32 µM)
IC50 [13]: 4.4 µg/mL (≈ 5.98 µM)
IC90 [13]: 16 µg/mL (≈ 21.7 µM)
IC50 [14]: 1.78 µg/mL (≈ 2.42 µM)
IC90 [14]: 6.73 µg/mL (≈ 9.14 µM)
IC50 [15]: 3.5 µg/mL (≈ 4.76 µM)
IC90 [15]: > 16 µg/mL
IC50 [16]: 0.57 µg/mL (≈ 0.775 µM)
IC90 [16]: 2.51 µg/mL (≈ 3.41 µM)
IC50 [17]: 0.81 µg/mL (≈ 1.1 µM)
IC90 [17]: 1.24 µg/mL (≈ 1.68 µM)
IC50 [18]: 1.48 µg/mL (≈ 2.01 µM)
IC90 [18]: 4.31 µg/mL (≈ 5.86 µM)
IC50 [19]: 2.8 µg/mL (≈ 3.8 µM)
IC90 [19]: 6.6 µg/mL (≈ 8.97 µM)
IC50 [20]: 1.4 µg/mL (≈ 1.9 µM)
IC90 [20]: 4.5 µg/mL (≈ 6.11 µM)
